Data as given in patent US20080170990A1, “Methods for Myocardial Imaging in Patients Having a History of Pulmonary Disease” (CV THERAPEUTICS, INC., priority 2006, published 2008).

Experiments:
Assay type in all cases: in vivo, human
[1] = tested on: AMP-sensitive subjects with mild or moderate asthma; assay: Double-blind placebo-controlled cross-over study of pulmonary function in AMP-sensitive asthma (Examples 9, 11)
Protocol: The primary objective was to compare the incidence of bronchoconstrictive reactions, defined as reduction from baseline in FEV1 of >15% within 2 hours following an intravenous (iv) bolus of 400 micrograms of Regadenoson or matching placebo.
Men or women ≧18 years of age with a diagnosis of mild or moderate asthma as documented by clinical history and pulmonary function test were considered for inclusion. The target was to enrolled 48 evaluable subjects: 24 mild and 24 moderate asthma subjects. […] Patients were not permitted short-acting bronchodilators for >6 hours and long-acting bronchodilators and methylxanthines for >24 hours prior to AMP, Regadenoson, or placebo.
AMP (adenosine 5′-monophosphate sodium salt) was used as an indirect bronchoconstrictor stimulus to select a group of susceptible subjects with adenosine-mediated bronchial hyperreactivity. A standard clinical protocol utilized by the investigative site for the inhalation of AMP for the purpose of provoking a bronchoconstrictor response in the airways was adopted for screening of all subjects. On arrival in the unit, subjects were required to rest for 15 minutes before assessment of lung function at baseline, measured as the best of 3 technically acceptable recordings of FEV1 taken at 1-minute intervals. Subject inhaled a series of five breaths of saline as control, followed by a breath of each increasing concentration of AMP at 3-minute intervals. Two measurements of FEV1 were to be made 90 and 150 seconds after each saline inhalation. The highest FEV1 value was to be recorded. Unless a fall in FEV1 of >10% from the baseline value was observed, subjects then inhaled increasing doubling concentrations of AMP (starting at 0.39 mg/mL) until a ≧20% decrease of FEV1 from the post-saline value was recorded. FEV1 was to be recorded at 90 and 150 seconds after each concentration was administered.
Subjects received 400 μg Regadenoson or placebo administered as an intravenous (iv) bolus in a double-blind cross-over design. Repeated measurements of FEV1 as an assessment of bronchoconstriction were performed before and for up to 2 hours after study drug administration.
(§1) Two similar randomized, double-blind, placebo (PLC)-controlled crossover trials were conducted, one in asthmatics with a positive adenosine monophosphate (AMP) challenge (a validated marker of airway inflammation) and one in patients with moderate or several chronic obstructive pulmonary disease (COPD). In both studies, short-acting bronchodilators were held prior to and for the 120 minute time frame study drug treatment during which spirometry was repeatedly assessed.

[2] = tested on: patients undergoing a clinically indicated coronary catheterization; assay: Dose-ranging study of coronary flow velocity, heart rate and blood pressure after IV bolus (Example 2)
Protocol: The study included patients undergoing a clinically indicated coronary catheterization with no more than a 70% stenosis in any coronary artery and no more than a 50% stenosis of the study vessel had CBFv determined by Doppler flow wire. Study subject were selected after measuring baseline and peak CBFv after an intracoronary (IC) injection of 18 μg of Ado. 36 subjects were identified as meeting the study criteria of having a peak to baseline CBFv ration of ≧2.5 in response to Adenosine,
Regadenoson was administered to the study subjects by IV bolus in less than 10 seconds in amounts ranging from 10 μg to 500 μg. Regadenoson is selective for the A2A adenosine receptor.
The effectiveness of both compounds was measured by monitoring coronary flow velocity. Other coronary parameters that were monitored included heart rate and blood pressure. These parameters were measured in order to evaluate the time to peak dose response, the magnitude of the dose response and the duration of the dose response. Adverse events were also monitored. Coronary blood flow velocity was measured at the LAD or LCx vessel. The velocity measurements were taken by following standard heart catheterization techniques and inserting a 0.014 inch Doppler-tipped Flowire into the LAD or LCx vessel and thereafter monitoring blood flow velocity. In addition, hemodynamic and electrocardiographic measurements were recorded continuously.
Overall, 36 human subjects (n=36) were evaluated. Of the 36, 18 were female and 18 were male. Their mean age was 53.4 and they ranged from 24-72 years in age. Of the 36 subjects evaluated, the LAD vessel of 31 subjects was monitored, and the LCx vessel of 5 subjects was monitored. The following doses (μg) of Regadenoson were given to the subjects in a single iv bolus: 10 (n=4); 30 (n=6); 100 (n=4); 300 (n=7); 400 (n=9); 500 (n=6).

[3] = tested on: subjects undergoing pharmacologic stress MPI; assay: Adverse effects and hemodynamics in pharmacologic stress myocardial perfusion imaging protocol (Example 7)
From the text: 36 subjects (27 men, 9 women; 67±10 years) were studied with two doses of Regadenoson [400 mcg (n=18), 500 mcg (n=18)], administered as an IV bolus, as part of a pharmacologic stress myocardial perfusion imaging protocol.

[4] = tested on: patients with moderate or several chronic obstructive pulmonary disease (COPD); assay: Double-blind placebo-controlled crossover trial in chronic obstructive pulmonary disease (Example 11)
Protocol: as §1

[5] = 400 μg IV bolus, about 1 minute after dosing
[6] = 400 or 500 mcg IV bolus, 36 subjects

CNC(=O)c1cnn(-c2nc(N)c3ncn([C@@H]4O[C@H](CO)[C@@H](O)[C@H]4O)c3n2)c1 [Regadenoson, (1-{9-[(4S,2R,3R,5R)-3,4-dihydroxy-5-(hydroxymethyl)oxolan-2-yl]-6-aminopurin-2-yl}pyrazol-4-yl)-N-methylcarboxamide]
incidence of chest discomfort ([1]; 400 μg iv bolus): 21% | incidence of dizziness ([1]; 400 μg iv bolus): 53% | incidence of dyspnea ([1]; 400 μg iv bolus): 34% | incidence of flushing ([1]; 400 μg iv bolus): 32% | incidence of headache ([1]; 400 μg iv bolus): 45% | incidence of nausea ([1]; 400 μg iv bolus): 19% | incidence of paraesthesia ([1]; 400 μg iv bolus): 19% | incidence of tachycardia ([1]; 400 μg iv bolus): 66% | time for HR to return to within 5 bpm of baseline ([1]; 400 μg iv bolus): ≤ 60 min | maximum increase in HR ([1]; 400 μg iv bolus, compared with placebo): +10.4 bpm | incidence of adverse events ([1]; 400 μg iv bolus, placebo 8%): 98% | incidence of dyspnea following REG ([1]; asthma study): 34% | Number of patients with FEV1 decline by >20% over 120 min ([1]; asthma study N=48): 1 REG, 0 PLC | Number of patients with FEV1 decline by >30% over 120 min ([1]; asthma study N=48): 1 REG, 0 PLC | Number of patients with use of acute oxygen or short-acting bronchodilators ([1]; asthma study N=48): 0 REG, 0 PLC | mean FEV1, all post-bolus time points combined ([1]; asthma study N=48, p = 0.17 vs PLC): 3.33 (0.9)L REG | Number of patients with FEV1 decline by >15% over 120 min ([1]; asthma study N=48, p = 0.99): 2 REG, 2 PLC | subjects with bronchoconstriction (FEV1 reduction >15% within 2 hours) ([1]; mild asthma (n=24), 400 μg iv bolus): None | number of subjects having bronchoconstriction (FEV1 reduction >15% within 2 hours) ([1]; moderate asthma (n=24), 400 μg iv bolus): 2 | maximum decrease in diastolic BP [2, 5]: 10±5 mmHg | maximum decrease in systolic BP [2, 5]: 20±8 mmHg | maximum increase in heart rate [2, 5]: 18±8 bpm | tolerability ([2]; 10-500 μg IV bolus): generally well tolerated | amount at which plateau peak flow velocity is reached ([2]; IV bolus): less than 100 μg | lowest amount that increases peak flow velocity ([2]; IV bolus): 10 µg | time to peak flow ([2]; all doses (10-500 μg IV bolus)): about 30 seconds | peak effects compared with adenosine ([2]; doses above about 100 μg): equivalent to 18 μg ic adenosine | incidence of dizziness ([3]; 400-mcg group): 11% | incidence of dyspnea ([3]; 400-mcg group): 17% | incidence of flushing ([3]; 400-mcg group): 17% | mean change in HR response ([3]; 400 mcg dose): 34.8% | patients with adverse effects (AE) [3, 6]: 72% | patients with adverse effects (AE), number [3, 6]: 26 pts | incidence of dizziness ([3]; 500-mcg group): 28% | incidence of dyspnea ([3]; 500-mcg group): 44% | incidence of flushing ([3]; 500-mcg group): 44% | mean change in HR response ([3]; 500 mcg dose): 44.2% | incidence of abdominal pain ([3]; both doses): 11% | incidence of chest discomfort ([3]; both doses): 33% | incidence of headache ([3]; both doses): 25% | lowest systolic BP (did not fall below) ([3]; either dose): ≥ 90 mmHg | serious AE ([3]; exacerbation of a migraine headache, required hospitalization): One serious AE occurred | AEs resolved within 15 min without treatment ([3]; in vivo): 91% | AEs that were mild to moderate ([3]; in vivo): 96% | AV block and arrhythmias ([3]; in vivo): No 2nd or 3rd degree AV block was noted and there were no serious arrhythmias | patients developing ST abnormalities ([3]; in vivo): 7 pts | patients developing T wave abnormalities ([3]; in vivo): 5 pts | time of peak hemodynamic effect, diastolic BP ([3]; in vivo): 8 min | time of peak hemodynamic effect, heart rate ([3]; in vivo): ≤ 2 min | time of peak hemodynamic effect, systolic BP ([3]; in vivo): 4 min | Diastolic BP, Absolute Change (peak) ([3]; mean ±S.D., 400 and 500 mcg): −5.4 ± 7.2 mmHg | Diastolic BP, Relative Change (peak) ([3]; mean ±S.D., 400 and 500 mcg): −7.9% ± 10.5% | Heart Rate, Absolute Change (peak) ([3]; mean ±S.D., 400 and 500 mcg): +21.9 ± 10.4 beats per min | Heart Rate, Relative Change (peak) ([3]; mean ±S.D., 400 and 500 mcg): +36.7% + 21.0% | Systolic BP, Absolute Change (peak) ([3]; mean ±S.D., 400 and 500 mcg): −5.9 ± 10.7 mmHg | Systolic BP, Relative Change (peak) ([3]; mean ±S.D., 400 and 500 mcg): −4.1% ± 7.6% | BP deviation from baseline ([3]; thirty min after Regadenoson): < 2% | HR above baseline ([3]; thirty min after Regadenoson): 8.6% | incidence of dyspnea following REG ([4]; COPD study): 61% | Number of patients with FEV1 decline by >20% over 120 min ([4]; COPD study N=49): 2 REG, 3 PLC | Number of patients with FEV1 decline by >30% over 120 min ([4]; COPD study N=49): 0 REG, 1 PLC | Number of patients with use of acute oxygen or short-acting bronchodilators ([4]; COPD study N=49): 0 REG, 0 PLC | Number of patients with FEV1 decline by >15% over 120 min ([4]; COPD study N=49, p = 0.31): 6 REG, 3 PLC | Number of patients with new onset wheezing ([4]; COPD study N=49, p = 0.33 vs PLC): 3 REG, 6 PLC | Maximum decline in FEV1 ([4]; COPD study N=49, p = 0.55 vs PLC): 0.11 (0.14)L REG | Maximum decline in oxygen saturation ([4]; COPD study N=49, p = 0.72 vs PLC): 1.21 (1.30)% REG
